Experimental data reported in patent US10729135B2, “Methods of controlling pests using terpendoles” (priority 2017, dated 2020).

Test system: green peach aphids (Myzus persicae)
Experiment: LC50 biological efficacy assay on green peach aphids, aerosolized dilutions on infested radish leaves
Format: in vivo
Conditions: for LC50: concentration for 50% control over 24-48 hours, infested radish leaves, 500 μl aerosolized dilution; for control of green peach aphids (in words): summary of Table 1
Experimental: Biological efficacy assays utilizing terpendoles were conducted on green peach aphids (Myzus persicae). Specifically, terpendole A, terpendole C, terpendole J, terpendole K, terpendole N, terpendole O and terpendole P were each separately applied in serial dilutions to determine the concentration at which 50% control of green peach aphids occurred over a period of 24-48 hours (“LC50”). Radish leaves infested with green peach aphids were treated, top and bottom, with a total of 500 μl of an aerosolized terpendole dilution. Treated, aphid infested leaves were held in greenhouse conditions and evaluated for efficacy at 24 and 48 h.

| SMILES | LC50 | control of green peach aphids (in words) |
| --- | --- | --- |
| CC1(C)OC1[C@H]1O[C@H]2[C@H]3O[C@@]34[C@H](CC[C@@]3(C)[C@@]4(O)CC[C@H]4Cc5c([nH]c6ccccc56)[C@@]43C)O[C@@H]2C(C)(C)O1 (stereo partly drawn) [Terpendole A, terpendole A] | 7 ppm | effectively controlled |
| CC(C)=C[C@@H]1O[C@H]2[C@@H](O[C@@H]3CC[C@]4(C)[C@](O)(CC[C@H](CC5(O)C(=O)Nc6cccc(CC7OC7(C)C)c65)[C@@]4(C)O)[C@@]34O[C@@H]24)C(C)(C)O1 (stereo partly drawn) [Terpendole N, terpendole N] | 4 ppm | effectively controlled |
| CC(C)=CCOC(C)(C)[C@H]1O[C@H]2CC[C@@]3(C)[C@@](O)(CC[C@H]4Cc5c([nH]c6ccccc56)[C@@]43C)[C@]23O[C@@H]3[C@@H]1O [Terpendole J, terpendole J] | 5,183 ppm | effectively controlled |
| CC(C)=CCc1ccc2c3c([nH]c2c1)[C@@]1(C)[C@@H](CC[C@@]2(O)[C@@]45O[C@@H]4[C@@H]4O[C@H](C6OC6(C)C)OC(C)(C)[C@H]4O[C@H]5CC[C@@]21C)C3 (stereo partly drawn) [Terpendole P, terpendole P] | 67 ppm | effectively controlled |
| CC(C)=C[C@H]1O[C@H]2[C@H]3O[C@@]34C(=CC[C@@]3(C)[C@@]4(O)CC[C@H]4Cc5c([nH]c6ccccc56)[C@@]43C)O[C@@H]2C(C)(C)O1 [Terpendole K, terpendole K] | 44 ppm | effectively controlled |
| CC(C)=CCc1cccc2[nH]c3c(c12)C[C@@H]1CC[C@@]2(O)[C@@]45O[C@@H]4[C@@H]4O[C@H](C6OC6(C)C)OC(C)(C)[C@H]4O[C@H]5CC[C@]2(C)[C@@]31C (stereo partly drawn) [Terpendole O, terpendole O] | 105 ppm | effectively controlled |
